Key:
field violet = assay: Test D postemergence; format: in vivo, Viola arvensis; settings: scale 0 to 100
Text: (§1) Seeds of plant species selected from bluegrass (annual bluegrass, Poa annua), blackgrass (Alopecurus myosuroides), canarygrass (Phalaris minor), chickweed (common chickweed, Stellaria media), galium (catchweed bedstraw, Galium aparine), bromegrass, down (downy bromegrass, Bromus tectorum), Russian thistle (Salsola kali), field poppy (Papaver rhoeas), field violet (Viola arvensis), foxtail, green (green foxtail, Setaria viridis), deadnettle (henbit deadnettle, Lamium amplexicaule), ryegrass, Ital. (Italian ryegrass, Lolium multiflorum), kochia (Kochia scoparia), lambsquarters (Chenopodium album), oilseed rape (Brassica napus), pigweed (Amaranthus retroflexus), chamomile (scentless chamomile, Matricaria inodora), speedwell (bird's-eye speedwell, Veronica persica), barley, spring (spring barley, Hordeum vulgare), wheat, spring (spring wheat, Triticum aestivum), buckwheat, wild (wild buckwheat, Polygonum convolvulus), wild mustard (Sinapis arvensis), oat, wild (wild oat, Avena fatua), radish, wild (wild radish, Raphanus raphanistrum), […]), barley, winter (winter barley, Hordeum vulgare), and wheat, winter (winter wheat, Triticum aestivum) were planted into a silt loam soil and treated preemergence with test chemicals formulated in a non-phytotoxic solvent mixture which included a surfactant. At the same time, these species were planted in pots containing Sunshine Redi-Earth® planting medium comprising spaghnum peat moss, vermiculite, starter nutrients and dolomitic limestone and treated with postemergence applications of the test chemicals formulated in the same manner. Plants ranged in height from 2 to 18 cm (1- to 4-leaf stage). Treated plants and controls were maintained in a controlled growth environment for 14 to 21 d after which time all species were compared to controls and visually evaluated. […] A dash (-) response means no test result.

oilseed rape = assay: Test D postemergence; format: in vivo, Brassica napus; settings: scale 0 to 100
Text: as §1

barnyardgrass = assay: Test C preemergence; format: in vivo, Echinochloa crus-galli; settings: for Plant response rating (scale of 0 to 100 where 0 is no effect and 100 is complete control): Barnyardgrass, preemergence; for Barnyardgrass plant response rating (0 to 100): Preemergence, visual rating after 13 to 15 d
Text: (§2) Seeds of plant species selected from blackgrass (Alopecurus myosuroides), ryegrass, Italian (Italian ryegrass, Lolium multiflorum), wheat (winter wheat, Triticum aestivum), galium (catchweed bedstraw, Galium aparine), corn (Zea mays), crabgrass, large (large crabgrass, Digitaria sanguinalis), foxtail, giant, (giant foxtail, Setaria faberii), johnsongrass (Sorghum halepense), lambsquarters (Chenopodium album), morningglory (Ipomoea coccinea), nutsedge, yellow (yellow nutsedge, Cyperus esculentus), pigweed (Amaranthus retroflexus), ragweed (common ragweed, Ambrosia elatior), soybean (Glycine max), barnyardgrass (Echinochloa crus-galli), oilseed rape (Brassica napus), waterhemp (common waterhemp, Amaranthus rudis), and velvetleaf (Abutilon theophrasti) were planted into a blend of loam soil and sand and treated preemergence with test chemicals formulated in a non-phytotoxic solvent mixture which included a surfactant. At the same time, plants selected from these crop and weed species and also chickweed (common chickweed, Stellaria media), oat, wild (wild oat, Avena fatua), and kochia (Kochia scoparia), were planted in pots containing Sunshine Redi-Earth® planting medium comprising spaghnum peat moss, vermiculite, starter nutrients and dolomitic limestone and treated with postemergence applications of test chemicals formulated in the same manner. Plants ranged in height from 2 to 18 cm (1- to 4-leaf stage) for postemergence treatments. […] A dash (-) response means no test result.

chickweed = assay: Test D postemergence; format: in vivo, Stellaria media; settings: scale 0 to 100
Text: as §1

galium [1] = assay: Test A postemergence; format: in vivo, Galium aparine; settings: 0 to 100 scale (0 no effect, 100 complete control), approx. 10 d
In short: (§3)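 Visual injury score, 0 (no effect) to 100 (complete control), taken about 10 d after treatment against untreated greenhouse controls. Chemicals formulated in non-phytotoxic solvent plus surfactant; preemergence by directed soil spray onto sown loam/sand, postemergence onto one- to two-leaf plants.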

foxtail, green = assay: Test D preemergence; format: in vivo, Setaria viridis; settings: for Plant response rating (0 to 100), Foxtail, Green: 16 g ai/ha, 0 is no effect, 100 is complete control; for Plant response rating: Foxtail, Green: scale 0 to 100
Text: as §1

ragweed = assay: Test A preemergence; format: in vivo, Ambrosia elatior; settings: 0 to 100 scale (0 no effect, 100 complete control)
In short: as §3

galium [2] = assay: Test C preemergence; format: in vivo, Galium aparine; settings: for Plant response rating (scale of 0 to 100 where 0 is no effect and 100 is complete control): Galium, preemergence; for Galium plant response rating (0 to 100): Preemergence, visual rating after 13 to 15 d
Text: as §2

## FC(F)(F)COc1nc(-c2ccc(Cl)cc2)nn1Cc1ccnc(C(F)(F)F)c1 [Compound 31]
Field violet; 16 g ai/ha
  Plant response rating: Field Violet: 100
Field violet; 31 g ai/ha
  Plant response rating: Field Violet: 100
Field violet; 62 g ai/ha
  Plant response rating: Field Violet: 100
Field violet; 125 g ai/ha
  Plant response rating: Field Violet: 100
Oilseed rape; 16 g ai/ha
  Plant response rating: Oilseed Rape: 80
Oilseed rape; 31 g ai/ha
  Plant response rating: Oilseed Rape: 85
Oilseed rape; 62 g ai/ha
  Plant response rating: Oilseed Rape: 90
Oilseed rape; 125 g ai/ha
  Plant response rating: Oilseed Rape: 100
barnyardgrass; 125 g ai/ha
  Plant response rating (scale of 0 to 100 where 0 is no effect and 100 is complete control): 90
barnyardgrass; 250 g ai/ha
  Plant response rating (scale of 0 to 100 where 0 is no effect and 100 is complete control): 95
barnyardgrass; 31 g ai/ha
  Barnyardgrass plant response rating (0 to 100): 70
barnyardgrass; 62 g ai/ha
  Barnyardgrass plant response rating (0 to 100): 80
chickweed; 16 g ai/ha
  Plant response rating: Chickweed: 80
chickweed; 31 g ai/ha
  Plant response rating: Chickweed: 90
chickweed; 62 g ai/ha
  Plant response rating: Chickweed: 100
chickweed; 125 g ai/ha
  Plant response rating: Chickweed: 100
Galium [1]; 125 g ai/ha
  Plant response rating, Galium: 70
Galium [1]; 500 g ai/ha
  Plant response rating, Galium: 90
foxtail, green
  Plant response rating (0 to 100), Foxtail, Green: 95
foxtail, green; 62 g ai/ha
  Plant response rating: Foxtail, Green: 100
foxtail, green; 125 g ai/ha
  Plant response rating: Foxtail, Green: 100
ragweed; 125 g ai/ha
  Plant response rating, Ragweed: 50
ragweed; 500 g ai/ha
  Plant response rating, Ragweed: 70
Galium [2]; 125 g ai/ha
  Plant response rating (scale of 0 to 100 where 0 is no effect and 100 is complete control): 30
Galium [2]; 250 g ai/ha
  Plant response rating (scale of 0 to 100 where 0 is no effect and 100 is complete control): 35
Galium [2]; 31 g ai/ha
  Galium plant response rating (0 to 100): 5
Galium [2]; 62 g ai/ha
  Galium plant response rating (0 to 100): 30

## CCOc1nc(-c2ccc(C(F)(F)F)cc2)nn1Cc1ccnc(C(F)(F)F)c1 [Compound 35, 4-[[5-ethoxy-3-[4-(trifluoromethyl)phenyl]-1H-1,2,4-triazole-1-yl]methyl]-2-(trifluoromethyl)pyridine]
Field violet; 16 g ai/ha
  Plant response rating: Field Violet: 90
Field violet; 31 g ai/ha
  Plant response rating: Field Violet: 100
Field violet; 62 g ai/ha
  Plant response rating: Field Violet: 100
Field violet; 125 g ai/ha
  Plant response rating: Field Violet: 100
Oilseed rape; 16 g ai/ha
  Plant response rating: Oilseed Rape: 80
Oilseed rape; 31 g ai/ha
  Plant response rating: Oilseed Rape: 90
Oilseed rape; 62 g ai/ha
  Plant response rating: Oilseed Rape: 100
Oilseed rape; 125 g ai/ha
  Plant response rating: Oilseed Rape: 100
barnyardgrass; 125 g ai/ha
  Plant response rating (scale of 0 to 100 where 0 is no effect and 100 is complete control): 98
barnyardgrass; 250 g ai/ha
  Plant response rating (scale of 0 to 100 where 0 is no effect and 100 is complete control): 100
barnyardgrass; 31 g ai/ha
  Barnyardgrass plant response rating (0 to 100): 85
barnyardgrass; 62 g ai/ha
  Barnyardgrass plant response rating (0 to 100): 90
chickweed; 16 g ai/ha
  Plant response rating: Chickweed: 70
chickweed; 31 g ai/ha
  Plant response rating: Chickweed: 85
chickweed; 62 g ai/ha
  Plant response rating: Chickweed: 100
chickweed; 125 g ai/ha
  Plant response rating: Chickweed: 100
Galium [1]; 31 g ai/ha
  Plant response rating, Galium: 90
Galium [1]; 125 g ai/ha
  Plant response rating, Galium: 90
foxtail, green
  Plant response rating (0 to 100), Foxtail, Green: 70
foxtail, green; 62 g ai/ha
  Plant response rating: Foxtail, Green: 100
foxtail, green; 125 g ai/ha
  Plant response rating: Foxtail, Green: 100
ragweed; 31 g ai/ha
  Plant response rating, Ragweed: 20
ragweed; 125 g ai/ha
  Plant response rating, Ragweed: 50
Galium [2]; 125 g ai/ha
  Plant response rating (scale of 0 to 100 where 0 is no effect and 100 is complete control): 90
Galium [2]; 250 g ai/ha
  Plant response rating (scale of 0 to 100 where 0 is no effect and 100 is complete control): 90
Galium [2]; 31 g ai/ha
  Galium plant response rating (0 to 100): 50
Galium [2]; 62 g ai/ha
  Galium plant response rating (0 to 100): 80
